Source: PubChem BioAssay AID330 (DTP/NCI, 2004)
“And” between values parts separate entries of the source, which are not always exact repeats. Equal entries are not always repeated. Toxic doses and inconclusive results are not listed. The calls were made as follows: active = survival T/C of 150% or more; inactive = T/C below 125% in these data. Square brackets hold non-standard residues; d marks the D form. Peptide text beside a SMILES is read from it. ξ: configuration not given here. ξL = CC(C)CC(N)C(=O)O

Tested on: P388 leukemia ip, CD2F1 mice, survival T/C
Experiment: NCI In Vivo Anticancer Drug Screen. Data for tumor model P388 Leukemia (intraperitoneal) in CD2F1 (CDF1) mice
Settings: endpoint: median survival time, higher = longer survival
Outline: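 Mice carrying the transplanted tumor received test compound or vehicle. Survival was recorded in each group, and the value is the treated-group measurement divided by that of the vehicle-treated control group.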

[1] = dose: 50.0 mg/kg/injection, schedule: Q01DX005 (ip), vehicle: Klucel (hydroxypropylcellulose) (HPC)
[2] = dose: 100.0 mg/kg/injection, schedule: Q01DX005 (ip), vehicle: Klucel (hydroxypropylcellulose) (HPC)
[3] = dose: 50.0 mg/kg/injection, schedule: Q01DX009 (ip), vehicle: saline
[4] = dose: 100.0 mg/kg/injection, schedule: Q01DX009 (ip), vehicle: saline
[5] = dose: 200.0 mg/kg/injection, schedule: Q01DX009 (ip), vehicle: saline
[6] = dose: 12.5 mg/kg/injection, schedule: Q01DX009 (ip), vehicle: saline with Tween-80
[7] = dose: 25.0 mg/kg/injection, schedule: Q01DX009 (ip), vehicle: saline with Tween-80
[8] = dose: 50.0 mg/kg/injection, schedule: Q01DX009 (ip), vehicle: saline with Tween-80
[9] = dose: 12.5 mg/kg/injection, schedule: Q01DX009 (ip), vehicle: saline
[10] = dose: 25.0 mg/kg/injection, schedule: Q01DX009 (ip), vehicle: saline
[11] = dose: 50.0 mg/kg/injection, schedule: Q01DX005 (ip), vehicle: saline with Tween-80
[12] = dose: 100.0 mg/kg/injection, schedule: Q01DX005 (ip), vehicle: saline with Tween-80
[13] = dose: 200.0 mg/kg/injection, schedule: Q01DX005 (ip), vehicle: saline with Tween-80
[14] = dose: 60.0 mg/kg/injection, schedule: Q01DX005 (ip), vehicle: saline with Tween-80
[15] = dose: 120.0 mg/kg/injection, schedule: Q01DX005 (ip), vehicle: saline with Tween-80
[16] = dose: 240.0 mg/kg/injection, schedule: Q01DX005 (ip), vehicle: saline with Tween-80

Measured: T/C

CC(C)CC(NC(=O)CN)C(=O)NCC(=O)NCC(=O)O (configuration not stated) (H-G[ξL]GG-OH)
inactive: [1] 100 % of control | [2] 102 % of control | dose: 200.0 mg/kg/injection, schedule: Q01DX005 (ip), vehicle: Klucel (hydroxypropylcellulose) (HPC) 95 % of control

C[N+](C)(N)CCS(N)(=O)=O
inactive: [3] 103 % of control | [4] 103 % of control | [5] 100 % of control

CC1C(O)=C(c2ccccc2)P(=O)(Cc2ccccc2)C1C (configuration not stated)
inactive: dose: 60.0 mg/kg/injection, schedule: Q01DX005 (ip), vehicle: saline 101 % of control | dose: 120.0 mg/kg/injection, schedule: Q01DX005 (ip), vehicle: saline 100 % of control | dose: 240.0 mg/kg/injection, schedule: Q01DX005 (ip), vehicle: saline 93 % of control

Cc1ccc2ccccc2c1C(=N)c1cc2ccccc2c2ccccc12
inactive: [1] 105 % of control | [2] 87 % of control

O=C(CCSC1=NCCCN1)c1ccc(F)cc1
inactive: [6] 111 % of control | [7] 118 % of control | [8] 118 % of control and 120 % of control

CCOC(=O)NC(C)(C)CN(C(=O)OCC)C(C)(C)CO
inactive: dose: 50.0 mg/kg/injection, schedule: Q04DX003 (ip), vehicle: saline 100 % of control | dose: 100.0 mg/kg/injection, schedule: Q04DX003 (ip), vehicle: saline 109 % of control | dose: 200.0 mg/kg/injection, schedule: Q04DX003 (ip), vehicle: saline 109 % of control

O=C1CSC(=O)N1c1ccc(Cl)c(Cl)c1
inactive: [9] 94 % of control | [10] 89 % of control | [8] 95 % of control | [3] 88 % of control | dose: 100.0 mg/kg/injection, schedule: Q01DX009 (ip), vehicle: saline with Tween-80 87 % of control

CC1CN(C(=O)c2ccccc2)CC/C1=N\O (configuration not stated)
inactive: [11] 97 % of control | [12] 93 % of control | [13] 101 % of control

OC1(C2(O)CCCC2)CCCC1
inactive: dose: 100.0 mg/kg/injection, schedule: Q04DX003 (ip), vehicle: saline with Tween-80 100 % of control | dose: 200.0 mg/kg/injection, schedule: Q04DX003 (ip), vehicle: saline with Tween-80 104 % of control | dose: 400.0 mg/kg/injection, schedule: Q04DX003 (ip), vehicle: saline with Tween-80 95 % of control

c1ccc(-c2ccccc2NC2=NCCO2)cc1
inactive: [6] 104 % of control | [7] 104 % of control | [8] 95 % of control

Fc1ccccc1N=Cc1ccc(C=Nc2ccccc2F)cc1
inactive: dose: 15.0 mg/kg/injection, schedule: Q01DX005 (ip), vehicle: Klucel (hydroxypropylcellulose) (HPC) 100 % of control | dose: 30.0 mg/kg/injection, schedule: Q01DX005 (ip), vehicle: Klucel (hydroxypropylcellulose) (HPC) 92 % of control | dose: 60.0 mg/kg/injection, schedule: Q01DX005 (ip), vehicle: Klucel (hydroxypropylcellulose) (HPC) 95 % of control

Cn1ncc2c(Cl)ncnc21
inactive: dose: 50.0 mg/kg/injection, schedule: Q01DX009 (ip), vehicle: Klucel (hydroxypropylcellulose) (HPC) 91 % of control | dose: 100.0 mg/kg/injection, schedule: Q01DX009 (ip), vehicle: Klucel (hydroxypropylcellulose) (HPC) 93 % of control | dose: 200.0 mg/kg/injection, schedule: Q01DX009 (ip), vehicle: Klucel (hydroxypropylcellulose) (HPC) 107 % of control

C[n+]1cc(-c2ccccc2)cc(-c2ccccc2)c1
inactive: dose: 3.12 mg/kg/injection, schedule: Q01DX005 (ip), vehicle: Klucel (hydroxypropylcellulose) (HPC) 104 % of control | dose: 3.12 mg/kg/injection, schedule: Q01DX005 (ip), vehicle: saline 103 % of control | dose: 6.25 mg/kg/injection, schedule: Q01DX005 (ip), vehicle: Klucel (hydroxypropylcellulose) (HPC) 109 % of control | dose: 6.25 mg/kg/injection, schedule: Q01DX005 (ip), vehicle: saline with Tween-80 105 % of control | dose: 6.25 mg/kg/injection, schedule: Q01DX005 (ip), vehicle: saline 97 % of control | dose: 12.5 mg/kg/injection, schedule: Q01DX005 (ip), vehicle: Klucel (hydroxypropylcellulose) (HPC) 104 % of control | dose: 12.5 mg/kg/injection, schedule: Q01DX005 (ip), vehicle: saline with Tween-80 100 % of control | dose: 12.5 mg/kg/injection, schedule: Q01DX005 (ip), vehicle: saline 96 % of control | dose: 25.0 mg/kg/injection, schedule: Q01DX005 (ip), vehicle: saline with Tween-80 96 % of control

COc1ncnc(Sc2ncccn2)c1[N+](=O)[O-]
inactive: [9] 103 % of control and 89 % of control | [10] 103 % of control and 105 % of control | [3] 102 % of control and 104 % of control and 90 % of control | [4] 100 % of control and 123 % of control and 89 % of control | [5] 109 % of control

COc1ccc(C2C3=C(CCCC3=O)Oc3cc4c(cc32)OCO4)c(OC)c1 (configuration not stated)
inactive: [14] 99 % of control | [15] 90 % of control | [16] 90 % of control

C/C(=C\C(=N\N=C(N)N)c1ccc(Cl)cc1)c1ccc(Cl)cc1
inactive: dose: 6.25 mg/kg/injection, schedule: Q01DX009 (ip), vehicle: saline with Tween-80 118 % of control | [6] 98 % of control

Cn1c(=O)oc2cc(NC(N)=O)c(Br)cc21
inactive: [1] 92 % of control | [2] 87 % of control

CC(C)(C)CC(C)(C)C/C=C/C[N+](C)(C)C/C=C/CC(C)(C)CC(C)(C)C
inactive: dose: 12.5 mg/kg/injection, schedule: Q04DX002 (ip), vehicle: saline 102 % of control | dose: 25.0 mg/kg/injection, schedule: Q04DX002 (ip), vehicle: saline 95 % of control

CCOC(=O)CC1CC(=O)C(C(=O)OCC)C=C1C(=O)OCC (configuration not stated)
inactive: [11] 94 % of control | [12] 98 % of control

CN(CC(=O)N1CCOCC1)Cc1c(Cl)cccc1NC(=O)c1ccccc1
inactive: [3] 100 % of control | [4] 103 % of control | [5] 105 % of control

CSC(SC)=C1CCCC(=C(SC)SC)C1=O
inactive: [11] 100 % of control | [12] 104 % of control | [13] 99 % of control

COc1ccc2c(=O)c(Cc3c[nH]c4ccccc34)coc2c1
inactive: dose: 7.5 mg/kg/injection, schedule: Q01DX005 (ip), vehicle: saline with Tween-80 100 % of control | dose: 15.0 mg/kg/injection, schedule: Q01DX005 (ip), vehicle: saline with Tween-80 93 % of control | dose: 30.0 mg/kg/injection, schedule: Q01DX005 (ip), vehicle: saline with Tween-80 86 % of control

COC(=O)C(=O)c1c(C(=O)OC)nc2nnc(N)n2c1-c1ccc(O)c(OC)c1
inactive: [14] 92 % of control | [15] 94 % of control | [16] 94 % of control

Cc1cc[n+](C2=C(Nc3cc(C)cc(C)c3)C(=O)c3ccccc3C2=O)cc1
inactive: [11] 111 % of control | [12] 119 % of control | [13] 90 % of control
